The source made the active and inactive calls.
What was measured:
[1] = molecular target: T1, Type-1 angiotensin II receptor (Homo sapiens, UniProt P30556); assay: agonist activity at AGTR1 – cell-based, uHTS hits, selectivity assay for APJ receptor agonist project, dose response (AID 488865); format: functional;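 also: beta-arrestin recruitment to AT1 measured by enzyme fragment complementation luminescence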
T1 sequence (P30556 whole entry): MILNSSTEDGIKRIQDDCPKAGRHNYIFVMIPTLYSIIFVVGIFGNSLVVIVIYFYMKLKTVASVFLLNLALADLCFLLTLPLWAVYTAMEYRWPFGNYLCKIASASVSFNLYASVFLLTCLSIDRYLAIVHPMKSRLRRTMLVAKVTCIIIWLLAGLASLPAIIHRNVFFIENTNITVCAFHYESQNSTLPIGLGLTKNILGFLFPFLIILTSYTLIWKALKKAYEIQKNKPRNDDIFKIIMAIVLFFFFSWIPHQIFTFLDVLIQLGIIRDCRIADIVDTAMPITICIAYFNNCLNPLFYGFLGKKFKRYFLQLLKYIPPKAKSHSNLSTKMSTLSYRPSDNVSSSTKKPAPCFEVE

[2] = molecular target: Alkaline phosphatase, placental type (Homo sapiens, UniProt P05187); assay: human placental alkaline phosphatase inhibition – biochemical, luminescence, confirmation (AID 1512); format: functional
Alkaline phosphatase, placental type, sequence (P05187 whole entry): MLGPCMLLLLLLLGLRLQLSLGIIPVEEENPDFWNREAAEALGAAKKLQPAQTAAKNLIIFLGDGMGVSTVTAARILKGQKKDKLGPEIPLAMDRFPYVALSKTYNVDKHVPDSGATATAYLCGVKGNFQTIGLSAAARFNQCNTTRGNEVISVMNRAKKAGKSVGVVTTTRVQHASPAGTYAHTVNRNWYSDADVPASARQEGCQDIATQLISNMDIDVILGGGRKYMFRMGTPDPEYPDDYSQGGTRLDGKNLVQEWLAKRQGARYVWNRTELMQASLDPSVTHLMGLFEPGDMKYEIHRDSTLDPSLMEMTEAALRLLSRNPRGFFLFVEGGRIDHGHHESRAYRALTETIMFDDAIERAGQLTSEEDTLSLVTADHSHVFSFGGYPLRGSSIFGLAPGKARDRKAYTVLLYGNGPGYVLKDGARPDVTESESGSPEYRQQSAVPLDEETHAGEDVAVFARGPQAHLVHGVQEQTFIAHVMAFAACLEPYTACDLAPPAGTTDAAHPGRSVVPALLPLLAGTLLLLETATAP

[3] = molecular target: T2, Alkaline phosphatase, tissue-nonspecific isozyme (Homo sapiens, UniProt P05186); assay: potency against alkaline phosphatase TNAP – biochemical, luminescent, dose response, SAR follow-up (AID 1056)
T2 sequence (P05186 whole entry): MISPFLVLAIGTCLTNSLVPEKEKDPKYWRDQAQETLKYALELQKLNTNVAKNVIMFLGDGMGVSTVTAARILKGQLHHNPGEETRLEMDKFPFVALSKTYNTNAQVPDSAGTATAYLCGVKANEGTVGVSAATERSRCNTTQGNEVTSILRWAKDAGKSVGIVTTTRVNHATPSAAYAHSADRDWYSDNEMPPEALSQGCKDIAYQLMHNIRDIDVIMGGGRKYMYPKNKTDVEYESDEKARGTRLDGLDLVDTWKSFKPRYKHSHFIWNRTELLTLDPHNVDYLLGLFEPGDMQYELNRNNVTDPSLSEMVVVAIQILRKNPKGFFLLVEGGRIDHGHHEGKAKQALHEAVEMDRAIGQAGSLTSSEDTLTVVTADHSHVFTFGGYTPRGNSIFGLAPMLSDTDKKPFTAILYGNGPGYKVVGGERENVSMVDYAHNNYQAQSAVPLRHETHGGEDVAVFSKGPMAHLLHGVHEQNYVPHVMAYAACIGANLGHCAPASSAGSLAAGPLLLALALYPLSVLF

[4] = molecular target: T3, Hexokinase (Trypanosoma brucei, UniProt Q38C41); assay: Confirmation assay for inhibitors of Trypanosoma brucei hexokinase 1-Analogue-first series. [Related pubchem assays (depositor defined):AID1430, AID1632, AID2516, AID2560, AID2579, AID2600, AID449725, AID492951]; format: functional
T3 sequence (Q38C41 whole entry): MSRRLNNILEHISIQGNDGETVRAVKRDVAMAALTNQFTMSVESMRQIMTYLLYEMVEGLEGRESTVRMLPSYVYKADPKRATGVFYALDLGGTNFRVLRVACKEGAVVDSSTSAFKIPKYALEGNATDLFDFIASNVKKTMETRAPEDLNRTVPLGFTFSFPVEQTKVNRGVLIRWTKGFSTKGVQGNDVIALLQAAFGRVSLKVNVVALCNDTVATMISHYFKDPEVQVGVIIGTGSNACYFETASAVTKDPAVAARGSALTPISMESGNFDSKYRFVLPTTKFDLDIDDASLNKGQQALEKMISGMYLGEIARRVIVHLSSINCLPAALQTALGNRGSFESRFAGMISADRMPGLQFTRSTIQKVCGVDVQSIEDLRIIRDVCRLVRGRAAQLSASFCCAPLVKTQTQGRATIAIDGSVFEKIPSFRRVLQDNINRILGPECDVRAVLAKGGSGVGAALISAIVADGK

[5] = molecular target: T4, CAAX prenyl protease 2 (Saccharomyces cerevisiae S288c, UniProt Q03530); format: biochemical
T4 sequence (Q03530 whole entry): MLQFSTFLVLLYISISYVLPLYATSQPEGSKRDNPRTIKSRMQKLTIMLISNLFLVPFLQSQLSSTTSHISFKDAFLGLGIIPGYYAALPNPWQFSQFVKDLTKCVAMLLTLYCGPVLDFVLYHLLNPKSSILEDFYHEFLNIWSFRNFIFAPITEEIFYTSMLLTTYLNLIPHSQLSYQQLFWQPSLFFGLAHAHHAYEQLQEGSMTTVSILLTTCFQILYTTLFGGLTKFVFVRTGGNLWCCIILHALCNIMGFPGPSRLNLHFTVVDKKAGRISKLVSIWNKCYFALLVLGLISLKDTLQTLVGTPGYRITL

[6] = molecular target: Voltage-dependent T-type calcium channel subunit alpha-1H (Homo sapiens, UniProt O95180); format: functional;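 also: channel activity triggered by adding a high calcium stimulation buffer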
Voltage-dependent T-type calcium channel subunit alpha-1H, sequence (O95180 whole entry): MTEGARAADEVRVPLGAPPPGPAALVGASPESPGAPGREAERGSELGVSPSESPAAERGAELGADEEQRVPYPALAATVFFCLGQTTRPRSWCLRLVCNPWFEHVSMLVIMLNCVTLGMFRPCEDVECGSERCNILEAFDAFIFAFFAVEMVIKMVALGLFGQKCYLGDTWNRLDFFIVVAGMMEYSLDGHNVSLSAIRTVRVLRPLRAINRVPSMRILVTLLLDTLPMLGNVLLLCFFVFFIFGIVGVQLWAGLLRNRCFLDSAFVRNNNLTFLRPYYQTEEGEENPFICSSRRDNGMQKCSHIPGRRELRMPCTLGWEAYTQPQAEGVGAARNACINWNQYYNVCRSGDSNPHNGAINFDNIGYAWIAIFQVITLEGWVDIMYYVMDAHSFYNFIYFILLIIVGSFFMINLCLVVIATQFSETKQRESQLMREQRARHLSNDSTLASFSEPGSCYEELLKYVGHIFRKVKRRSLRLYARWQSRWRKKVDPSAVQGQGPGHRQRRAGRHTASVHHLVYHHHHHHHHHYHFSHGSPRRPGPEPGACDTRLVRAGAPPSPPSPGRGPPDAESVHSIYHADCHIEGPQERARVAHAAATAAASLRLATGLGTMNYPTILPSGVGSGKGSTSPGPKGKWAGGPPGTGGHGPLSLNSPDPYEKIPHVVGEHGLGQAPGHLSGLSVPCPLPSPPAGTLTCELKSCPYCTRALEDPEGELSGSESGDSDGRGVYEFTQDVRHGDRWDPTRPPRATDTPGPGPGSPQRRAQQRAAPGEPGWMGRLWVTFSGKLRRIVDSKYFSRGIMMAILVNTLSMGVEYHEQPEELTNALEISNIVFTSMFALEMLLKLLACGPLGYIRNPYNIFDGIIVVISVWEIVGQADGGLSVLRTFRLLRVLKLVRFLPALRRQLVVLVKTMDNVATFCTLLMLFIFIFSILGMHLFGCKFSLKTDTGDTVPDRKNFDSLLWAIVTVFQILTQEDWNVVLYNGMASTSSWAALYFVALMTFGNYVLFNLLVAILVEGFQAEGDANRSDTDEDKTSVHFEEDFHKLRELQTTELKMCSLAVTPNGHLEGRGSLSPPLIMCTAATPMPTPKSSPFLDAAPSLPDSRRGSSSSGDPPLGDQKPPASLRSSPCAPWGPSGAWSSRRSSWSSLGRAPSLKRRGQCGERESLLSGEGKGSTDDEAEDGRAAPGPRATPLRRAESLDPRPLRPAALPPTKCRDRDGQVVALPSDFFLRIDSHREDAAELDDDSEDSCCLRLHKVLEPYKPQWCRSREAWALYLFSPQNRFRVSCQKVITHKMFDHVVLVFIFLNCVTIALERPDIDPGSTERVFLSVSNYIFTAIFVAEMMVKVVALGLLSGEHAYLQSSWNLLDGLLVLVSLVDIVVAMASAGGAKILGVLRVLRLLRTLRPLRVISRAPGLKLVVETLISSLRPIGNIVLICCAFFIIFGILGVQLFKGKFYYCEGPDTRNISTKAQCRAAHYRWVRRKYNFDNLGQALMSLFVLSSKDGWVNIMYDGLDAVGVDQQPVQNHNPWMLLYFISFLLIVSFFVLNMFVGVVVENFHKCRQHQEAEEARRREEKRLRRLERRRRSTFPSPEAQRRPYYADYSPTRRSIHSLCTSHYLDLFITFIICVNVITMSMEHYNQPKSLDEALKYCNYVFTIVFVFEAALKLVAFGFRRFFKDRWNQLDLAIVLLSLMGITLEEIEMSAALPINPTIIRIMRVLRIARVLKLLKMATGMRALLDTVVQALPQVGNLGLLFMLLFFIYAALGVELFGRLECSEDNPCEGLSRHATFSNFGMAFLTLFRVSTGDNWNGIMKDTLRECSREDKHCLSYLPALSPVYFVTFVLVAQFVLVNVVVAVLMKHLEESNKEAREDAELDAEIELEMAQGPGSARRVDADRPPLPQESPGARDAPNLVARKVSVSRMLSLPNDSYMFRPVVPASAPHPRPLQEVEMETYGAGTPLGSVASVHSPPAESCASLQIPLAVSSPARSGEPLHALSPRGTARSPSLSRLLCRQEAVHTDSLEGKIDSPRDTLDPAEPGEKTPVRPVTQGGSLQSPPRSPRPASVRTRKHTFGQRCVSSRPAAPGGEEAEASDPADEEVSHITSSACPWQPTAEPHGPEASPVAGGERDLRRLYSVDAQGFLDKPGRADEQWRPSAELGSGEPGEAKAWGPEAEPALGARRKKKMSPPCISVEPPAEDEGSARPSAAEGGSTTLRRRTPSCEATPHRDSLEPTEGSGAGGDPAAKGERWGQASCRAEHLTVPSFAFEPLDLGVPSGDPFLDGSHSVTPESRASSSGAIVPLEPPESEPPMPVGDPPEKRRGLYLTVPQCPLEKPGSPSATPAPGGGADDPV

[7] = system: Streptococcus sp. 'group A'; assay: Streptococcus pyogenes SK(-)GAS viability under kanamycin – luminescence, BacTiterGlo, confirmation, counter-screen for streptokinase expression inhibitor project, dose response (AID 1900); format: functional, organism-based
[8] = molecular target: T5, Streptokinase A (Streptococcus pyogenes serotype M1, UniProt P10520); assay: viability-normalized secreted streptokinase activity reduction – plasminogen activation absorbance, OD405, dose response (AID 1914); format: functional, Streptococcus pyogenes M1 GAS;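 also: secreted streptokinase activity via plasminogen activation per viability signal from cell pellet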
T5 sequence (P10520 whole entry): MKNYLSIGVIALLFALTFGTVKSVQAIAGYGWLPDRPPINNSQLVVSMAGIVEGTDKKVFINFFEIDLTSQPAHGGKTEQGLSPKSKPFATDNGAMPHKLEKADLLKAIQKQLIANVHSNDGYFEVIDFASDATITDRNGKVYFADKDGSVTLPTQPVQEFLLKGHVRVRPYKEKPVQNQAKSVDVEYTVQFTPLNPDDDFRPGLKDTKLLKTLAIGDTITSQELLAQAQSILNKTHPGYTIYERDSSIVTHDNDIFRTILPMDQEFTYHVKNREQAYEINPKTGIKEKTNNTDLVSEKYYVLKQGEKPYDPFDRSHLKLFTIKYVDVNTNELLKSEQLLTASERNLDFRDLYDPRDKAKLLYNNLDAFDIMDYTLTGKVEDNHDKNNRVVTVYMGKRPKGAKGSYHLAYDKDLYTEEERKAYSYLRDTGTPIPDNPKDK

[9] = microbe, parasite or virus in culture; format: functional; conditions: Mycobacterium tuberculosis
[10] = system: Streptococcus; assay: GAS UMAA2166 growth inhibition – luminescence, BacTiterGlo, counter-screen for streptokinase expression inhibitor project, dose response (AID 1915); format: functional, organism-based;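 also: potency for reduction of bacterial viability or growth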
[11] = THP-1 cell cytotoxicity, dose response, cytotoxicity control for non-replicating M. tuberculosis project (AID 489025); format: functional
[12] = Vero E6 cell cytotoxicity, dose response, cytotoxicity control for non-replicating M. tuberculosis project, secondary assay (AID 492998); format: functional, VeroE6; conditions: Vero C1008
[13] = molecular target: Neurotensin receptor type 1 (Homo sapiens, UniProt P30989); format: functional;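 also: Image-based confirmatory dose-response assay measuring agonist activity at NTR1; NTR1-expressing U2OS osteosarcoma cells imaged for beta-arrestin GFP spot formation; agonist potency where compounds increase beta-arrestin recruitment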
Neurotensin receptor type 1, sequence (P30989 whole entry): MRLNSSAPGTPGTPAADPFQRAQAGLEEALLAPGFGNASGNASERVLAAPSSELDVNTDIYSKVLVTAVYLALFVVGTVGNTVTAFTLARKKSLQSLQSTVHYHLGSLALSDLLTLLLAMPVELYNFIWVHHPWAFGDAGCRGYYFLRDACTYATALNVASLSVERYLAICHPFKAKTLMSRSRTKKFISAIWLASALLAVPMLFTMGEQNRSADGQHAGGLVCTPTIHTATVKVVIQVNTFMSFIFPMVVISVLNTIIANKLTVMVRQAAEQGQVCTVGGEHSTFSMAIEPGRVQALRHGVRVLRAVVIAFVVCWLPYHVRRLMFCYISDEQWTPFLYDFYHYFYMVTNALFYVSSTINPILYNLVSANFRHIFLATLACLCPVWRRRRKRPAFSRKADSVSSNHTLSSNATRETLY

[14] = molecular target: T6, Microphthalmia-associated transcription factor (Homo sapiens, UniProt O75030); assay: reducers of TRPM1 reporter luminescence, concentration series – cell-based, SK-MEL-5, cherry-picked, set 3, MITF inhibitor project, dose response (AID 493073); format: functional;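 also: SK-MEL-5 melanoma cells with luciferase driven by the MITF target TRPM1 promoter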
T6 sequence (O75030 whole entry): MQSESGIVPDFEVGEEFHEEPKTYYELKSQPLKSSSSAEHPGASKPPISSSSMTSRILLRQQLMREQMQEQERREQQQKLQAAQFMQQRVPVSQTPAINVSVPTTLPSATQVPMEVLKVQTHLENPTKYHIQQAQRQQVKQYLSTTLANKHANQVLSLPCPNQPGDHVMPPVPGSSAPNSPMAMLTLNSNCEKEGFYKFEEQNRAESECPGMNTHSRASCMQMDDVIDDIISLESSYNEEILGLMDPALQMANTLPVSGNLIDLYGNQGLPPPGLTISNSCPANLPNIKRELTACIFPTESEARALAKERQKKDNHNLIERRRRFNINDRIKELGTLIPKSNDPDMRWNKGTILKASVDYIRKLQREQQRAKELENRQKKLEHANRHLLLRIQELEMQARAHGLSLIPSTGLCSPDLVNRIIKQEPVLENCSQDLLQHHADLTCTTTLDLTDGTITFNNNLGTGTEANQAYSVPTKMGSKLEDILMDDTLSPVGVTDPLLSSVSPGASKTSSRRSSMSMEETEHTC

[15] = cells; format: functional
[16] = molecular target: DNA dC->dU-editing enzyme APOBEC-3A (Homo sapiens, UniProt P31941); assay: Dose Response confirmation of small molecule APOBEC3A DNA Deaminase Inhibitors via a fluorescence-based single-stranded DNA deaminase assay. [Related pubchem assays (depositor defined):AID493011, AID493024]; format: functional
DNA dC->dU-editing enzyme APOBEC-3A, sequence (P31941 whole entry): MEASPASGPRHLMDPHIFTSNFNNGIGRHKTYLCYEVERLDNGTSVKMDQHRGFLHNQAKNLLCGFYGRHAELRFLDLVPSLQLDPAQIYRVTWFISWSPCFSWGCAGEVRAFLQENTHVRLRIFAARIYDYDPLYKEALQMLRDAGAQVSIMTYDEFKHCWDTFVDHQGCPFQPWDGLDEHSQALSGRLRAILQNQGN

[17] = molecular target: DNA dC->dU-editing enzyme APOBEC-3G (Homo sapiens, UniProt Q9HC16); format: functional;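 also: Dose-response counterscreen measuring inhibition of APOBEC3G DNA deaminase activity, run while confirming APOBEC3A inhibitors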
DNA dC->dU-editing enzyme APOBEC-3G, sequence (Q9HC16 whole entry, the tested form may be a part): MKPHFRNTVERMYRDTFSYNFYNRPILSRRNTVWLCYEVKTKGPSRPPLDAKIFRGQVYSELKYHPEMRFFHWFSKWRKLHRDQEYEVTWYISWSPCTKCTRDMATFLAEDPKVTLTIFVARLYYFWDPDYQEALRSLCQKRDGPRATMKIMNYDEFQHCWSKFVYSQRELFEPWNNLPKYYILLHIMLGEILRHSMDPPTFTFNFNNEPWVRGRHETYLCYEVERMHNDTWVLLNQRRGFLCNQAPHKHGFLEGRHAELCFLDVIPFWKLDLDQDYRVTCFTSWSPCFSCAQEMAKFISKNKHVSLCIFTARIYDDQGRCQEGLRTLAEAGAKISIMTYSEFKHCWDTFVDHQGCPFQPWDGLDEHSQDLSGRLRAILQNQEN

[18] = molecular target: T7, Carboxy-terminal domain RNA polymerase II polypeptide A small phosphatase 1 (Homo sapiens, UniProt Q9GZU7); assay: CTDSP1 inhibitors, concentration-response, biochemical, absorbance readout, ultra-high-throughput screen actives (AID 540297); format: functional
T7 sequence (Q9GZU7 whole entry): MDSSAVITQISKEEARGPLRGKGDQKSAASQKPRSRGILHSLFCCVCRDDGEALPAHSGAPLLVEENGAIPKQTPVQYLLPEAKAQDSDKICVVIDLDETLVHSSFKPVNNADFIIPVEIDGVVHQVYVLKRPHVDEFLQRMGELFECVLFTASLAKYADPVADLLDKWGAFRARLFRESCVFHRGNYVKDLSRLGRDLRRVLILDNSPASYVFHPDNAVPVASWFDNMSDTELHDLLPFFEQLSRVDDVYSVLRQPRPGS

[19] = HepG2 cell cytotoxicity, dose response, cytotoxicity control for non-replicating M. tuberculosis project (AID 489018); format: functional; conditions: Mycobacterium tuberculosis
[20] = system: Vero; assay: cells; format: functional; conditions: Chlorocebus sabaeus
[21] = molecular target: T8, Phosphoethanolamine/phosphocholine phosphatase (Homo sapiens, UniProt Q8TCT1); assay: SAR assay for compounds that inhibit PHOSPHO1. [Related pubchem assays (depositor defined):AID1545, AID1565, AID1574]
T8 sequence (Q8TCT1 whole entry): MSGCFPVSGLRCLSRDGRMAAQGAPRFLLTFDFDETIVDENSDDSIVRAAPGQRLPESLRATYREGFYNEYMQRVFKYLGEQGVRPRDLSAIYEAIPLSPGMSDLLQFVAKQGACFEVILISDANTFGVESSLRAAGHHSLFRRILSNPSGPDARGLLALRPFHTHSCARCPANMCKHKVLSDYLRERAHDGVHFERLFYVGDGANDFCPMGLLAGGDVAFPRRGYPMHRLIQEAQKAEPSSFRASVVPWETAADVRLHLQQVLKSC

Cc1cccc2sc(N(CCCN(C)C)C(=O)c3ccc(S(=O)(=O)N4CCc5ccccc5C4)cc3)nc12
EC50 [1]: > 100 µM (inactive)

COc1ccc(F)cc1S(=O)(=O)Nc1ccc2ccccc2c1
IC50 [2]: > 100 µM (inactive) | IC50 [3]: > 100 µM (inactive)

O=C(NCc1ccccc1)n1sc2ccccc2c1=O
IC50 [4]: 4.44 µM (active)

CCn1c(SCC(=O)c2ccc(OC)cc2)nnc1-c1ccccc1
IC50 [2]: > 100 µM (inactive) | IC50 [3]: > 100 µM (inactive)

COc1ccccc1-c1nc(SCC(=O)c2ccc(O)c(O)c2)n[nH]1
IC50 [2]: 14.8 µM (active) | IC50 [3]: 3.34 µM (active)

O=C(COC(=O)c1ccccc1Cc1ccccc1)NC1CCS(=O)(=O)C1 (stereo unspecified)
AC50 [5]: 4.52 µM (active)

Cc1ccc(S(=O)(=O)N2CCCC(NC(=O)N3CCN(c4ccccc4)CC3)C2)cc1 (stereo unspecified)
EC50 [6]: 8.79 µM (active)

Cc1ccc(NC(=O)CSc2nnc(Cc3cccn3C)n2-c2ccc(F)cc2)cc1
EC50 [6]: 3.49 µM (active)

N#CC1=C(c2ccccc2)/C(=C/c2ccccc2)OC1=O
EC50 [7]: 10.6 µM (active) | EC50 [8]: 2.38 µM (active) | CC50 [9]: 24.1 µM (active) | EC50 [10]: > 150 µM (not active) | CC50 [11]: > 40 µM (active) | CC50 [12]: > 20 µM (active) | EC50 [13]: 6.66 µM (active) | AC50 [14]: 4.25 µM (active) | IC50 [15]: 10 µM (active)

COc1ccccc1CC(=O)Nc1ccc2c(C)cc(=O)oc2c1
AC50 [5]: 34.5 µM (active)

COc1cc(/C=C/c2cccc[n+]2C)ccc1OCC(=O)Nc1cccc(Cl)c1
IC50 [16]: 2.83 µM (active) | IC50 [17]: 2.95 µM (active) | IC50 [18]: 18.9 µM (active)

Cc1ccc(NC(=O)C2CCCN2C(=O)c2cccs2)c(C)c1 (stereo unspecified)
IC50 [16]: 3.76 µM (active) | IC50 [17]: 6.6 µM (active)

COC(=O)c1ccc(Cl)cc1NS(=O)(=O)c1ccc(OC)cc1
IC50 [4]: > 25 µM (inactive)

CCNc1nc(NC(C)(C)C)nc(N2CCCCC2)n1
CC50 [9]: 13.4 µM (active) | CC50 [11]: > 40 µM (active) | CC50 [19]: > 20 µM (active) | IC50 [15]: 28.8 µM (active) | CC50 [20]: > 25 µM (active)

COc1ccc(CNC(=O)CSCc2cnn(-c3ccccc3)c2-n2cccc2)cc1
EC50 [6]: 4.8 µM (active)

O=[N+]([O-])c1ccc2[nH]c(-c3ccccn3)nc2c1
CC50 [11]: 13.4 µM (active) | CC50 [19]: 17.4 µM (active) | CC50 [12]: 14.8 µM (active) | IC50 [15]: 42.1 µM (active)

O=C(NCc1ccccc1CN1CCCCC1)c1ccccc1N1CCCC1=O
IC50 [16]: 4.48 µM (active) | IC50 [17]: 4.58 µM (active)

COc1ccc(-n2sc3cc(F)ccc3c2=O)cc1
IC50 [21]: 5.42 µM (inactive)

CCOc1ccc(C(=O)Nc2cc(Cl)ccc2C(=O)O)cc1
IC50 [4]: 20.7 µM (active)

Source: ChEMBL document CHEMBL1201862, “PubChem BioAssay data set” (2004)
